Reference: patent publication US7989422B2, “Antibacterial agents” (Alchemia Limited, priority 2005, dated 2011)

Assays:
Format in all cases: cell-based
[1] = system: E. Faecium 51299 VanB; assay: MIC against vancomycin-resistant enterococcus 51299 (VanB), microbroth dilution; details: MIC class; ATCC 51299 VanB
Procedure, shortened: (§1)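 CLSI microbroth dilution in Mueller Hinton broth, compounds diluted from a 128 μg/mL test solution. Wells received 5 μL of a 1:10 dilution of a 0.5 McFarland suspension and were incubated 18-24 h at 35° C without CO2, then examined for growth. Each well was then subcultured onto horse blood agar for another 18-24 h.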

[2] = system: Staphylococcus aureus (MRSA) ATCC 33591; assay: MIC against MRSA, microbroth dilution; details: MIC class
Procedure, shortened: as §1

[3] = system: Enterococcus faecalis ATCC 29212; assay: MIC against E. faecalis, microbroth dilution; details: MIC class
Procedure, shortened: as §1

[4] = system: Staphylococcus aureus ATCC 25923; assay: MIC against S. aureus, microbroth dilution in MH broth, without or with 5% horse serum; details: MIC class; S. aureus ATCC 25923
Procedure, shortened: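 Single-concentration screen at 128 μg/mL in MH broth, then CLSI microbroth twofold dilution in MH broth without or with 5% heat-inactivated horse serum. Inoculum from 0.5 McFarland suspension diluted 1:10; plates incubated 35° C, non-CO2, 18-24 h, then scored for visible growth.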

[5] = system: Enterococcus faecium ATCC 35667; assay: MIC against E. faecium, microbroth dilution; details: MIC class
Procedure, shortened: as §1

SMILES	E. Faecium 51299 VanB activity [1]	S. Aureus 33591 MRSA activity [2]	E. Fecalis 29212 activity [3]	S. Aureus 25923 activity [4]	E. Faecium 35667 activity [5]
CCCCCC(C)CCC(=O)NC1C(CO)OCC(n2c(S)nc3cc(C(F)(F)F)cc(Cl)c32)C1O (stereo not shown) [Compound 178]	− (“−”: MIC (μg/mL): MIC > 64)	− (“−”: MIC (μg/mL): MIC > 64)	− (“−”: MIC (μg/mL): MIC > 64)	+ (“+”: MIC (μg/mL): 64 ≧ MIC > 16)	− (“−”: MIC (μg/mL): MIC > 64)
O=C(Nc1ccc(Cl)c(C(F)(F)F)c1)NC1COC(CO)C(n2c(NCc3ccc(Cl)cc3)nc3cc(C(F)(F)F)ccc32)C1O (stereo not shown) [Compound 247]	++ (“++”: MIC (μg/mL): MIC ≦ 16)	++ (“++”: MIC (μg/mL): MIC ≦ 16)	++ (“++”: MIC (μg/mL): MIC ≦ 16)	++ (“++”: MIC (μg/mL): MIC ≦ 16)	− (“−”: MIC (μg/mL): MIC > 64)
Nc1ccccc1OC1C(NC(=O)Nc2ccc(Cl)c(C(F)(F)F)c2)COC(CO)C1NC(=O)C(N)Cc1ccc(-c2ccccc2)cc1 (single isomer, unassigned) [Compound 71]	+ (“+”: MIC (μg/mL): 64 ≧ MIC > 16)	++ (“++”: MIC (μg/mL): MIC ≦ 16)	+ (“+”: MIC (μg/mL): 64 ≧ MIC > 16)	++ (“++”: MIC (μg/mL): MIC ≦ 16)	++ (“++”: MIC (μg/mL): MIC ≦ 16)
O=C(Nc1ccc(Cl)c(C(F)(F)F)c1)NC1COC(CO)C(n2c(Nc3ccc(Cl)cc3)nc3cc(C(F)(F)F)cc(Cl)c32)C1O (stereo not shown) [Compound 252]	− (“−”: MIC (μg/mL): MIC > 64)	− (“−”: MIC (μg/mL): MIC > 64)	+ (“+”: MIC (μg/mL): 64 ≧ MIC > 16)	+ (“+”: MIC (μg/mL): 64 ≧ MIC > 16)	− (“−”: MIC (μg/mL): MIC > 64)
CCCCCCCCCCCCC(N)C(=O)NC1C(CO)OCC(Nc2ccc(C(F)(F)F)cc2[N+](=O)[O-])C1O (stereo not shown) [Compound 197]	+ (“+”: MIC (μg/mL): 64 ≧ MIC > 16)	+ (“+”: MIC (μg/mL): 64 ≧ MIC > 16)	+ (“+”: MIC (μg/mL): 64 ≧ MIC > 16)	++ (“++”: MIC (μg/mL): MIC ≦ 16)	+ (“+”: MIC (μg/mL): 64 ≧ MIC > 16)
